Experimental data taken from patent publication US7105675B2, “Pyridomorphinans, thienomorphinans and use thereof” (Southern Research Institute, priority 1999, dated 2006).
Read-outs that look alike come from different tables or passages of the source.

Key:
[1] = test system: guinea pig ileum longitudinal muscle myenteric plexus; experiment: Agonist activity in GPI smooth muscle preparation, inhibition of contraction; format: cell-based; conditions: for inhibition at 1 µM: Cavia porcellus, read-out: agonist activity GPI IC50 (nM) or % max resp
Procedure: (§1) Bioassays in GPI and MVD smooth muscle preparations. Electrically-induced smooth muscle contractions of mouse vas deferens and strips of guinea pig ileum longitudinal muscle myenteric plexus were used. Tissues came from maile ICR mice weighing 25–40 g and male Hartley guinea pigs weighing 250–500 g. The tissues were tied to gold chain with suture silk, suspended in 20 mL baths containing 37° C. oxygenated (95% O2, 5% CO2) Krebs bicarbonate solution (magnesium free for the MVD), and allowed to equilibrate for 15 min. The tissues were then stretched to optimal length previously determined to be 1 g tension (0.5 g for MVD) and allowed to equilibrate for 15 min. The tissues were stimulated transmurally between platinum wire electrodes at 0.1 Hz, 0.4 ms pulses (2-ms pulses for MVD), and supramaximal voltage. An initial dose-response curve of DPDPE or PL-017 was constructed at the start of each assay to establish tissue effects, allowing each tissue to be used as its own control.
(§2) Tissues not producing typical results were not used. Experimental compounds were added to the baths in 14–60 μL volumes. Succeeding doses of argonist were added cumulatively to the bath at 3 minute intervals to produce a concentration-response curve. The tissues were then washed extensively with fresh buffer until the original contraction height was re-established. […] Antagonist effects to DPDPE and PL-017 were assayed after incubation of the tissues with 1 μM concentration of the compound in the bath for 30 minutes. The tissues were then washed with fresh buffer for 30 min, and the agonist dose-response curve was repeated. Rightward shifts in the dose-response curves were calculated by dividing the antagonized dose-response curve IC50 value by the unantagoniced IC50 value. IC50 values represent the mean of two to four tissues. IC50 estimates and their associated standard errors were determined by using a computerized nonlinear least-squares method.

[2] = test system: μ opioid receptor (PL017) in GPI; experiment: Antagonist activity against PL-017 in electrically stimulated guinea pig ileum (GPI); format: cell-based; conditions: for antagonist activity PL017 (μ) GPI IC50 ratio: 1 μM compound, 30 min incubation, IC50 of PL-017 with antagonist divided by control IC50; for antagonist activity PL017 (μ) GPI Ke: Ke = [antagonist]/(IC50 ratio − 1), PL-017 as agonist, n = 3
Procedure: as §1, §2

κ1 opioid receptor = molecular target: T1, κ1 opioid receptor (Cavia porcellus, UniProt P41144); experiment: Radioligand binding, kappa sites, displacement of [3H]U69,593 in guinea pig brain membranes
T1 construct: Guinea pig brain membranes were prepared each day using partially thawed guinea pig brain; from tissue; host or cells: guinea pig brain membranes
Procedure: (§3) Radioligand Binding Assays. Mu binding sites were labeled using [^3H]DAMGO (1–3 nM). Rat membranes were prepared each day using a partially thawed frozen rat brain which was homogenized with a polytron in 10 mL/brain of ice cold 10 mM Tris-HCl, pH 7.0. Membranes were then centrifuged twice at 30,000 g for 10 min and resuspended with ice-cold buffer following each centrifugation. After the second centrifugation, the membranes were resuspended in 50 mM Tris-HCl, pH 7.4 (50 mL/brain) at 25° C. Incubations proceeded for 2 h at 25° C. in 50 mM Tris-HCl, pH 7.4, along with a protease inhibitor cocktail (PIC). The nonspecific binding was determined using 20 μM of levallorphan. Delta binding sites were labeled using [^3]DADLE (2 nM) and rat brain membranes. Rat membranes were prepared each day using a partially thawed frozen rat brain which was homogenized with a polytron in 10 mL/brain of ice cold 10 mM Tris-HCl, pH 7.0. Membranes were then centrifuged twice at 30,000 g for 10 min and resuspended with ice-cold buffer following each centrifugation. After the second centrifugation, the membranes were resuspended in 50 mM Tris-HCl, pH 7.4 (50 mL/brain) at 25° C. Incubations proceeded for 2 h at 25° C. in 50 mM Tris-HCl pH 7.4, containing 100 mM choline chloride, 3 mM MnCl2, and 100 nM DAMGO to block binding to μ sites, and PIC. Nonspecific binding was determined using 20 μM levallorphan. Kappa binding sites were labeled using [^3H]U69,593 (2 nM). Guinea pig brain membranes were prepared each day using partially thawed guinea pig brain which was homogenized with a polytron in 10 mL/brain of ice cold 10 mM Tris-HCl pH 7.0. The membranes were then centrifuged twice at 30,000 g for 10 min and resuspended with ice-cold buffer following each centrifugation. After the second centrifugation, the membranes were resuspended in 50 mM Tris-HCl, pH 7.4 (75 mL/brain) at 25° C. Incubations proceeded for 2 h at 25° C. in 50 mM Tris-HCl, pH 7.4, containing 1 μg/mL of captopril and PIC. Nonspecific binding was determined using 1 μM U69,593. Each ^3H ligand was displaced by 8–10 concentrations of test drug, two times. Compounds were prepared as 1 mM solution with 10 mM Tris buffer (pH 7.4) containing 10% DMSO before drug dilution. All drug dilutions were done at 10 mM Tris-HCl, pH 7.4, containing 1 mg/mL bovine serum albumin. All washes were done with ice-cold 10 mM Tris-HCl, pH 7.4. The IC50 and slope factor (N) were obtained by using the program MLAB-PC (Civilized Software, Bethesda, Md.). Ki values were calculated according to the equation Ki=IC50/(1+[L]/Kd).

μ opioid receptor = molecular target: T2, μ opioid receptor (Rattus norvegicus, UniProt P33535); experiment: Radioligand binding, mu sites, displacement of [3H]DAMGO in rat brain membranes
T2 construct: Rat membranes were prepared each day using a partially thawed frozen rat brain; from tissue; host or cells: rat brain membranes
Procedure: as §3

[3] = molecular target: T3, δ opioid receptor (DPDPE) in MVD (Mus musculus, UniProt P32300); experiment: Antagonist activity against DPDPE in electrically stimulated mouse vas deferens (MVD); format: cell-based; conditions: for antagonist activity DPDPE (δ) MVD IC50 ratio: 1 μM compound, 30 min incubation, IC50 of DPDPE with antagonist divided by control IC50; for Ke selectivity ratio μδ: Ke GPI (μ) over Ke MVD (δ)
T3 construct: Electrically-induced smooth muscle contractions of mouse vas deferens and strips of guinea pig ileum longitudinal muscle myenteric plexus were used; from tissue; host or cells: mouse vas deferens (male ICR mice)
Procedure: as §1, §2

mouse vas deferens = experiment: Agonist activity in MVD smooth muscle preparation, inhibition of contraction; format: cell-based; conditions: read-out: agonist activity MVD IC50 (nM) or % max resp
Procedure: as §1, §2

δ opioid receptor = δ opioid receptor (Rattus norvegicus, UniProt P33533); experiment: Radioligand binding, delta sites, displacement of [3H]DADLE in rat brain membranes; set-up: Rat membranes were prepared each day using a partially thawed frozen rat brain; from tissue; host or cells: rat brain membranes; conditions: for Selectivity Ratio κ1δ / Selectivity Ratio μ/δ: ratio of Ki values
Procedure: as §3

[4] = pyridomorphinans, [3H]U69,593 (1.2–2.2 nm), guinea pig brain membranes, read-out: Ki (nM) ± SEM κ1
[5] = pyridomorphinans, [3H]DAMGO (1.4–2.0 nM), rat brain membranes, read-out: Ki (nM) ± SEM μ

T3 sequence (P32300 whole entry): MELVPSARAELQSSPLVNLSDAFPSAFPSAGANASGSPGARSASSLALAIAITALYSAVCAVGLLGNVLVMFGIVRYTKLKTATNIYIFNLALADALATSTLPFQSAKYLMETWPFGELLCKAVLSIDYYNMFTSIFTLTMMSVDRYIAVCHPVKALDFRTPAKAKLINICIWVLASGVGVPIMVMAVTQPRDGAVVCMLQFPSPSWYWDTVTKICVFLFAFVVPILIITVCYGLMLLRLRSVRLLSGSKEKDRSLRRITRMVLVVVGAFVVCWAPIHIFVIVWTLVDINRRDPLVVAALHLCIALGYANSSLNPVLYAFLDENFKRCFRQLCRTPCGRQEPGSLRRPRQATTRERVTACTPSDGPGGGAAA
T1 sequence (P41144 whole entry): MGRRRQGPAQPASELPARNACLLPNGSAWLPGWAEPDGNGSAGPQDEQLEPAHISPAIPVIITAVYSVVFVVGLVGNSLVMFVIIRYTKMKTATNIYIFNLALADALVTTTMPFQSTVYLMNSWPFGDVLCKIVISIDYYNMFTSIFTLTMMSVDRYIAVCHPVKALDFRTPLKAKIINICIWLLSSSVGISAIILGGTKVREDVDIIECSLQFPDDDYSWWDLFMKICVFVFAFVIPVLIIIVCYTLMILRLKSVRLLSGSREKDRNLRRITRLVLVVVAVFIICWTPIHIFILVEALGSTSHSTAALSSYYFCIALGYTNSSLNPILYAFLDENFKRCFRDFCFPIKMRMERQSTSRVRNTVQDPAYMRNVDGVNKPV
T2 sequence (P33535 whole entry): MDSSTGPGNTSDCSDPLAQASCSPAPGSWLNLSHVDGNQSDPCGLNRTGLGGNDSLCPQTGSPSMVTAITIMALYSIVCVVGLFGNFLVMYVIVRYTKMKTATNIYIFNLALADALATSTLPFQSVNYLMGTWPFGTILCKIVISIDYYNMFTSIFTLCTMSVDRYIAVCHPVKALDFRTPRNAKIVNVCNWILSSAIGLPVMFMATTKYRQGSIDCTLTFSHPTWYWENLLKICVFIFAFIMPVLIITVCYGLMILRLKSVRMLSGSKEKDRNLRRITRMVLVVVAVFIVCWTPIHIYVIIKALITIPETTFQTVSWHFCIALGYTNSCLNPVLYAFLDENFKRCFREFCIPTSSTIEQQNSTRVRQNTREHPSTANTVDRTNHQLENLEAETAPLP
Chain of δ opioid receptor (P33533 whole entry): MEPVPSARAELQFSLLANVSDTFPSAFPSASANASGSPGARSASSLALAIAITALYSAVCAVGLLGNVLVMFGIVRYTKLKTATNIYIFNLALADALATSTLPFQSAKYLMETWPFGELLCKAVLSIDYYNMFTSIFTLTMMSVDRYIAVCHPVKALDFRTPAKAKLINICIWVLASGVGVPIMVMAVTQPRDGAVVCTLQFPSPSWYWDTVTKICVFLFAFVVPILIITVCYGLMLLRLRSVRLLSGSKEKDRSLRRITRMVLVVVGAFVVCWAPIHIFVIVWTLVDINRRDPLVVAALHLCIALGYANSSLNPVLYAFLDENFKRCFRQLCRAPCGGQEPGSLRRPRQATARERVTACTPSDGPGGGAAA

Structure (SMILES) | inhibition at 1 µM [1] | antagonist activity PL017 (μ) GPI IC50 ratio [2] | antagonist activity PL017 (μ) GPI Ke [2] | Ki (κ1 opioid receptor) | Ki (μ opioid receptor) | Kb [3] | antagonist activity DPDPE (δ) MVD IC50 ratio [3] | Ke selectivity ratio μδ [3] | inhibition at 1 µM (mouse vas deferens) | Ki (δ opioid receptor) | Selectivity Ratio κ1δ (δ opioid receptor; pyridomorphinans) | Selectivity Ratio μ/δ (δ opioid receptor; pyridomorphinans) | Ki (κ1 opioid receptor; [4]) | Ki (μ opioid receptor; [5]) | Ki (δ opioid receptor; pyridomorphinans, [3H]DADLE (1.3–2.0 nM), rat brain membranes, 100 nM DAMGO to block μ-sites, read-out: Ki (nM) ± SEM δ) | Selectivity Ratio κ1δ (δ opioid receptor; thienomorphinans) | Selectivity Ratio μ/δ (δ opioid receptor; thienomorphinans) | agonist activity GPI IC50 (nM) or % max resp ([1]; percentage inhibition of contraction at 1 μM)
Oc1ccc2c3c1OC1c4ncc(Br)cc4CC4(O)C(C2)N(CC2CC2)CCC314 (stereo not drawn) [Compound 7b, 5′-Bromo-17-(cyclopropylmethyl)-6,7-didehydro-3,14-dihydroxy-4,5α-epoxypyrido[2′,3′:6,7]morphinan] | 0% | 43.9 ± 25.6 | 23 nM | 55.7 ± 7 nM | 15.5 ± 1 nM | 3.1 nM | 325 ± 127 | 14 | 0% | 1.2 ± 0.13 nM | 46 | 13 |  |  |  |  |  | 
N#Cc1cnc2c(c1)CC1(O)C3Cc4ccc(O)c5c4C1(CCN3CC1CC1)C2O5 (stereo not drawn) [Compound 7c, 5′-Cyano-17-(cyclopropylmethyl)-6,7-didehydro-3,14-dihydroxy-4,5α-epoxypyrido[2′,3′:6,7]morphinan] | 0% | 2.2 ± 1.1 |  | 33.9 ± 2 nM | 16 ± 1.8 nM | 44 nM | 23.6 ± 2.2 |  | 0% | 4.5 ± 0.28 nM | 7.5 | 3.6 |  |  |  |  |  | 
CCOC(=O)c1cnc2c(c1)C[C@@]1(O)[C@H]3Cc4ccc(O)c5c4[C@@]1(CCN3CC1CC1)[C@H]2O5 [Compound 7d, 5′-Carbethoxy-17-(cyclopropylmethyl)-6,7-didehydro-3,14-dihydroxy-4,5α-epoxypyrido[2′,3′:6,7]morphinan] | 0% |  | 74 nM |  |  | 20 nM |  |  | 0% |  |  |  | 9.6 ± 0.93 nM | 37 ± 3.4 nM |  |  |  | 
O=[N+]([O-])c1cnc2c(c1)CC1(O)C3Cc4ccc(O)c5c4C1(CCN3CC1CC1)C2O5 (stereo not drawn) [Compound 7e, 17-(Cyclopropylmethyl)-6,7-didehydro-3,14-dihydroxy-4,5α-epoxy-5′-nitropyrido[2′,3′:6,7]morphinan] | 0% | 4.7 ± 0.59 | 271 nM | 92 ± 12.8 nM | 17.5 ± 2 nM | 51 nM | 20.7 ± 4.2 | 5.3 | 14% | 5.5 ± 0.67 nM | 17 | 3.2 |  |  |  |  |  | 
Nc1cnc2c(c1)C[C@@]1(O)[C@H]3Cc4ccc(O)c5c4[C@@]1(CCN3CC1CC1)[C@H]2O5 [Compound 7f, 5′-Amino-17-(cyclopropylmethyl)-6,7-didehydro-3,14-dihydroxy-4,5α-epoxypyrido[2′,3′:6,7]morphinan] | 0% | 23.4 ± 4.8 | 49 nM |  |  | 26 nM | 43.3 ± 9.0 | 1.9 | 6% |  | 1.5 | 1.6 | 12 ± 1.2 nM | 12.8 ± 0.93 nM | 8 ± 0.3 nM |  |  | 
N#Cc1c(N)sc2c1[C@@H]1Oc3c(O)ccc4c3[C@@]13CCN(CC1CC1)[C@H](C4)[C@]3(O)C2 [Compound 8a, 5′-Amino-4′-cyano-17-(cyclopropylmethyl)-6,7-didehydro-3,14-dihydroxy-4,5α-epoxythieno [2′,3′:7,6]morphinan] | 0% | 160.3 ± 41.6 | 8.7 nM | 1.5 ± 0.12 nM | 5.5 ± 0.2 nM | 9.6 nM | 109.6 ± 12.1 | 0.9 | 0% | 2.6 ± 0.11 nM |  |  |  |  |  | 0.6 | 2.1 | 
COC(=O)c1c(N)sc2c1[C@@H]1Oc3c(O)ccc4c3[C@@]13CCN(CC1CC1)[C@H](C4)[C@]3(O)C2 [Compound 8b, 5′-Amino-4′-carbomethoxy-17-(cyclopropylmethyl)-6,7-didehydro-3,14-dihydroxy-4,5α-epoxythieno[2′,3′:7,6]morphinan] | 0% | 39.1 ± 11.6 | 35 nM | 8.7 ± 0.34 nM | 29 ± 4 nM | 21 nM | 53.5 ± 10.1 | 1.7 | 0% | 6.6 ± 0.3 nM |  |  |  |  |  | 1.3 | 4.4 | 
CCOC(=O)c1c(N)sc2c1[C@@H]1Oc3c(O)ccc4c3[C@@]13CCN(CC1CC1)[C@H](C4)[C@]3(O)C2 [Compound 8c, 5′-Amino-4′-carbethoxy-17-(cyclopropylmethyl)-6,7-didehydro-3,14-dihydroxy-4,5α-epoxythieno[2′,3′:7,6]morphinan] | 0% | 46.0 ± 21.9 | 26 nM | 9 ± 0.81 nM | 20 ± 1 nM | 68 nM | 19.8 ± 6.6 | 0.4 | 11% | 5 ± 0.2 nM |  |  |  |  |  | 1.8 | 4.0 | 
Nc1sc2c(c1C(=O)OCc1ccccc1)[C@@H]1Oc3c(O)ccc4c3[C@@]13CCN(CC1CC1)[C@H](C4)[C@]3(O)C2 [Compound 8d, 5′-Amino-4′-benzyloxycarbonyl-17-(cyclopropylmethyl)-6,7-didehydro-3,14-dihydroxy-4,5α-epoxythieno[2′,3′:7,6]morphinan] | 40% |  |  | 48 ± 3 nM | 61 ± 3 nM | 5 nM | 289 ± 13 |  | 11% | 7 ± 0.3 nM |  |  |  |  |  | 6.9 | 8.7 | 40%
